From patent publication US8591943B2, “Pyrazolo[1,5-a]pyrimidine derivatives as mTOR inhibitors” (Merck Sharp & Dohme Corp., priority 2009, dated 2013)
Where two headings read alike, the source gives them in different places.

Columns and labels:
[1] = target: mTOR enzyme (Homo sapiens, UniProt P42345); assay: mTOR Kinase Assay; assay type: biochemical
Description: The mTOR assay buffer contains 10 mM hepes (pH 7.4), 50 mM NaCl, 100 μg/ml BSA, 50 mM B-glycerophosphate, 10 mM MnCl2 and 0.5 mM DTT. 20 ng of mTOR enzyme is preincubated with the compound for 10 minutes. 5 μM ATP and 0.1 μM GSTS6K is added. The reaction is incubated for one hour at 30° C. Anti phospho p70S6K (about 1.7 ng/well) and anti GSTXL665 (1:1 Ratio with the substrate GSTS6K) are added after incubating. The plates are read at least 2 hours after adding the anti phospho p70S6K and the anti GSTXL665.

[2] = target: T1, Cyclin E/CDK2 (Homo sapiens, UniProt P24941); assay: In Vitro Cyclin E/CDK2 Kinase Assay; assay type: biochemical
T1 construct: made in house; host or cells: SF9 cells, baculovirus co-infection
Source text: Cyclin E was cloned into pVL1393 (Pharmingen, La Jolla, Calif.) by PCR, with the addition of 5 histidine residues at the amino-terminal end to allow purification on nickel resin. The expressed protein was approximately 45 kDa. CDK2 was cloned into pVL1393 by PCR, with the addition of a haemaglutinin epitope tag at the carboxy-terminal end (YDVPDYAS). The expressed protein was approximately 34 kDa in size.
Recombinant baculoviruses expressing cyclin E and CDK2 were co-infected into SF9 cells at an equal multiplicity of infection (MOI=5), for 48 hrs. Cells were harvested by centrifugation at 1000 RPM for 10 minutes, then pellets lysed on ice for 30 minutes in five times the pellet volume of lysis buffer containing 50 mM Tris pH 8.0, 150 mM NaCl, 1% NP40, 1 mM DTT and protease inhibitors (Roche Diagnostics GmbH, Mannheim, Germany). Lysates were spun down at 15000 RPM for 10 minutes and the supernatant retained. 5 mL of nickel beads (for one liter of SF9 cells) were washed three times in lysis buffer (Qiagen GmbH, Germany). Imidazole was added to the baculovirus supernatant to a final concentration of 20 mM, then incubated with the nickel beads for 45 minutes at 4° C. Proteins were eluted with lysis buffer containing 250 mM imidazole. Eluate was dialyzed about 15 hours in 2 liters of kinase buffer containing 50 mM Tris pH 8.0, 1 mM DTT, 10 mM MgCl2, 100 μM sodium orthovanadate and 20% glycerol. Enzyme was stored in aliquots at −70° C.
Cyclin E/CDK2 kinase assays can be performed as described below in low protein binding 96-well plates (Corning Inc, Corning, N.Y.).
The substrate used in these reactions is a biotinylated peptide derived from Histone H1 (from Amersham, UK). The substrate is thawed on ice and diluted to 2 μM in kinase buffer. Test compounds are diluted in 10% DMSO to desirable concentrations. For each kinase reaction, 20 μL of the 50 μg/mL enzyme solution (1 μg of enzyme) and 20 μl of the 2 μM substrate solution are mixed, then combined with 10 μL of diluted compound in each well for testing. The kinase reaction is initiated by addition of 50 μL of 2 μM ATP and 0.1 μCi of ^33P-ATP (from Amersham, UK). The reaction is allowed to run for 1 hour at room temperature, then is stopped by adding 200 μL of stop buffer containing 0.1% Triton X-100, 1 mM ATP, 5 mM EDTA, and 5 mg/mL streptavidine coated SPA beads (from Amersham, UK) for 15 minutes. The SPA beads are then captured onto a 96-well GFIB filter plate (Packard/Perkin Elmer Life Sciences) using a Filtermate universal harvester (Packard/Perkin Elmer Life Sciences.). Non-specific signals are eliminated by washing the beads twice with 2M NaCl then twice with 2 M NaCl with 1% phosphoric acid. The radioactive signal can then be measured using, for example, a TopCount 96 well liquid scintillation counter (from Packard/Perkin Elmer Life Sciences).

[3] = target: T2, recombinant His-CHK1 (Homo sapiens, UniProt O14757); assay: CHK1 In Vitro Kinase Assay
T2 sequence (O14757 1-265 limits assumed): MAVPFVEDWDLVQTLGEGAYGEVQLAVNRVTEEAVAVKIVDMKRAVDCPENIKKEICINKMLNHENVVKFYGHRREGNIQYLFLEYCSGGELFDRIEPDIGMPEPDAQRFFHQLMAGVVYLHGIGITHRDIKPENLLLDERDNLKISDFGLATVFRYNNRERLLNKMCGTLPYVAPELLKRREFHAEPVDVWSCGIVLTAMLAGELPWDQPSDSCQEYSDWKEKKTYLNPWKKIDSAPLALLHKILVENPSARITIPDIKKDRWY

IC50 [1]	Compound	IC50 ([1]; rated A-F)	IC50 ([2]; rated A-F)	IC50 [3]	IC50 [2]
	CS(=O)(=O)NC(=O)C[C@H]1CC[C@@H](c2nc3c(-c4cnc5ccccc5c4)cnn3c(N)c2Br)CC1 [Compound 7.2, 2-(4-(7-amino-6-bromo-3-(quinolin-3-yl)pyrazolo[1,5-a]pyrimidin-5-yl)cyclohexyl)-N-(methylsulfonyl)acetamide]	< 0.1 µM	> 5 µM	> 5 µM	
	CS(=O)(=O)N1CCC(c2nc3c(-c4cnc5ccccc5c4)cnn3c(N)c2Br)C1 (stereo not shown) [Compound 8.1]	< 0.1 µM	> 5 µM	> 5 µM	
	Nc1c(Br)c([C@H]2CC[C@H](C(=O)O)CC2)nc2c(-c3ccc(-c4cccnc4)nc3)cnn12 [Compound 4.11]	< 0.1 µM	> 5 µM	> 5 µM	
0.0014 µM	N#Cc1c(C2CCC(CC(=O)O)CC2)nc2c(-c3cnc4ccccc4c3)cnn2c1N (stereo not shown) [Compound 6.6, [4-(7-Amino-6-cyano-3-quinolin-3-yl-pyrazolo[1,5-a]pyrimidin-5-yl)-cyclohexyl]-acetic acid]				
	Nc1c(Br)c(N2CCc3[nH]cnc3C2)nc2c(-c3cnc4ccccc4c3)cnn12 [Compound 10.19]	< 0.1 µM	> 5 µM	> 5 µM	
	CN(C)C(=O)C1CCC(c2cc(N)n3ncc(-c4cnn(C)c4)c3n2)CN1 (stereo not shown) [Compound 2.9]	1 to 5 µM		> 5 µM	
	COC(=O)C1CCC(c2cc(N)n3ncc(-c4cnn(C)c4)c3n2)CN1 (stereo not shown) [Compound 2.8]	0.501 to 1 µM	> 5 µM	1 to 5 µM	
	Nc1c(Br)c(N2CCCS(=O)(=O)CC2)nc2c(-c3cnc4ccccc4c3)cnn12 [Compound 10.64]	< 0.1 µM	> 5 µM	> 5 µM	
	CC(=O)c1c(N2CCS(=O)(=O)CC2)nc2c(-c3cnc4ccccc4c3)cnn2c1N [Compound 10.62]	< 0.1 µM	> 5 µM	> 5 µM	
	CS(=O)(=O)NC(=O)C[C@H]1CC[C@H](c2nc3c(-c4cnc5ccccc5c4)cnn3c(N)c2Br)CC1 [Compound 7.5]	< 0.1 µM	> 5 µM	> 5 µM	
	Nc1c(Br)c([C@H]2CC[C@H]3C(=O)NC(=O)N3C2)nc2c(-c3cnc4ccccc4c3)cnn12 [Compound 3.10]	< 0.1 µM	0.501 to 1 µM	> 5 µM	
	Nc1c(Br)c(CNC2CCOCC2)nc2c(-c3cnc4ccccc4c3)cnn12 [Compound 13.16]	< 0.1 µM	> 5 µM	> 5 µM	
	Nc1c(Br)c(N2CCC[S+]([O-])CC2)nc2c(-c3cnc4ccccc4c3)cnn12 (stereo not shown) [Compound 10.63]	< 0.1 µM	> 5 µM	> 5 µM	
	Nc1cc(C2CCC(C(=O)O)NC2)nc2c(-c3cn[nH]c3)cnn12 (stereo not shown) [Compound 1.5]	< 0.1 µM	> 5 µM	> 5 µM	
	Nc1c(Br)c(C2CCC(C(=O)O)NC2)nc2c(-c3cnc4ccccc4c3)cnn12 (stereo not shown) [Compound 2.2, 5-(7-amino-6-bromo-3-(quinolin-3-yl)pyrazolo[1,5-a]pyrimidin-5-yl)piperidine-2-carboxylic acid]	< 0.1 µM	> 5 µM	> 5 µM	
	Nc1c(Br)c(N2CCN3C(=O)NC(=O)CC3C2)nc2c(-c3cnc4ccccc4c3)cnn12 (stereo not shown) [Compound 10.5]	< 0.1 µM	0.501 to 1 µM	> 5 µM	
	Nc1c(Br)c([C@H]2CC[C@H](C(=O)O)CC2)nc2c(-c3ccc(-c4ccncc4)nc3)cnn12 [Compound 4.12]	< 0.1 µM	> 5 µM	> 5 µM	
	COC(=O)C1CCC(c2nc3c(-c4cnn(C)c4)cnn3c(N)c2Br)CN1 (stereo not shown) [Compound 2.4]	< 0.1 µM	> 5 µM	0.101 to 0.2 µM	

IC50 [1]	Compound	IC50 ([1]; rated A-F)	IC50 ([2]; rated A-F)	IC50 [3]	IC50 [2]
	CS(=O)(=O)N1CCC(c2cc(N)n3ncc(-c4cnc5ccccc5c4)c3n2)C1 (stereo not shown) [Compound 8.17]	< 0.1 µM	> 5 µM	> 5 µM	
	COC(=O)[C@@H]1CC[C@H](c2cc(N)n3ncc(-c4cnn(C)c4)c3n2)CN1 (stereo in doubt) [Compound 2.5]	0.101 to 0.2 µM	> 5 µM	0.501 to 1 µM	
	COC(=O)c1ccc(-c2cc(N)n3ncc(-c4cnc5ccccc5c4)c3n2)cn1 [Compound 11.3]	1 to 5 µM	> 5 µM	> 5 µM	
0.146 µM	Cn1cc(-c2cnn3c(N)cc(C4CCC(C(=O)O)NC4)nc23)cn1 (stereo not shown) [Compound 1.2]				
	Nc1c(Br)c(C2CCC3(CC2)OCCO3)nc2c(-c3cnc4ccccc4c3)cnn12 [Compound 6.7]	< 0.1 µM		> 5 µM	
	Cn1cc(-c2cnn3c(N)c(Br)c(C4CCC(C(=O)O)C4)nc23)cn1 (stereo not shown) [Compound 4.5]	0.101 to 0.2 µM	> 5 µM	> 5 µM	
	Nc1c(Br)c(N2CCN3C(=O)CCC3C2)nc2c(-c3cnc4ccccc4c3)cnn12 (stereo not shown) [Compound 10.26]	< 0.1 µM	> 5 µM	> 5 µM	
	Nc1c(Br)c(N2CCN3C(=O)NC(=O)C3C2)nc2c(-c3cnc4ccccc4c3)cnn12 (stereo not shown) [Compound 10.60]	< 0.1 µM	> 5 µM	> 5 µM	
	N#CCC1CCC(c2nc3c(-c4cnc5ccccc5c4)cnn3c(N)c2Br)CC1 (stereo not shown) [Compound 5.2]	< 0.1 µM	> 5 µM	> 5 µM	
0.0148 µM	Nc1c(Br)c(-c2ccc(CC(=O)O)cc2)nc2c(-c3cnc4ccccc4c3)cnn12 [Compound 11.1, [4-(7-Amino-6-bromo-3-quinolin-3-yl-pyrazolo[1,5-a]pyrimidin-5-yl)-phenyl]-acetic acid]				
	CC(=O)N1CCC(c2nc3c(-c4cnc5ccccc5c4)cnn3c(N)c2Br)C1 (stereo not shown) [Compound 8.7]	< 0.1 µM		> 5 µM	
	Nc1cc(CN2CCN3C(=O)NC(=O)C3C2)nc2c(-c3cnc4ccccc4c3)cnn12 (stereo not shown) [Compound 13.3]	0.201 to 0.5 µM	> 5 µM	> 5 µM	
	Nc1c(Br)c(C2CCS(=O)(=O)CC2)nc2c(-c3cnc4ccccc4c3)cnn12 [Compound 8.15]	< 0.1 µM	> 5 µM	> 5 µM	
	CS(=O)(=O)N1CCC(c2nc3c(-c4cnc5ccccc5c4)cnn3c(N)c2Br)CC1 [Compound 8.18]	< 0.1 µM	1 to 5 µM	> 5 µM	
	COC(=O)[C@H]1CC[C@@H](c2nc3c(-c4cnc5ccccc5c4)cnn3c(N)c2Br)CN1 (stereo in doubt) [Compound 2.7]	0.101 to 0.2 µM	> 5 µM	> 5 µM	
0.0124 µM	Nc1cc(C2CCC(C(=O)O)NC2)nc2c(-c3cnc4ccccc4c3)cnn12 (stereo not shown) [Compound 1.1, 5-(7-amino-3-(quinolin-3-yl)pyrazolo[1,5-a]pyrimidin-5-yl)piperidine-2-carboxylic acid]				
	COC(=O)[C@@H]1CC[C@H](c2nc3c(-c4cnc5ccccc5c4)cnn3c(N)c2Br)CN1 (stereo in doubt) [Compound 2.6]	< 0.1 µM	> 5 µM	1 to 5 µM	

Compound	IC50 [1]	IC50 ([1]; rated A-F)	IC50 ([2]; rated A-F)	IC50 [3]	IC50 [2]
Nc1c(Br)c(N2CCC(CC(=O)O)CC2)nc2c(-c3cnc4ccccc4c3)cnn12 [Compound 10.47]	0.0113 µM			22 µM	10 µM
